{"source": "patent US20250235509A1", "about": "“Formulation and Method of Preparing Glucagon-like Peptide-1 (GLP-1) for Oral Administration” (priority 2024, published 2025)", "key": {"[1]": {"conditions": "mouse, in vivo, po", "method": "(§1) A quantitative ELISA assay to determine the absorption rate was also performed. The experimental mouse was sacrificed and whole body fluid collected one hour after feeding with Liraglutide. The intensity of the color was compared with that of a standard curve constructed by standard Liraglutide.\n(§2) A quantitative ELISA assay was performed to determine the absorption rate, and the mice were sacrificed and whole body fluid collected one hour after feeding with Semaglutide GLP-1. […] The intensity of the color was compared with that of a standard curve constructed by standard Semaglutide GLP-1."}, "[2]": {"conditions": "mouse, in vivo", "method": "(§3) A mouse at two weeks old was gavaged with Liraglutide, or not treated with Liraglutide to serve as a control mouse. Two hours later, the pancreas of the mouse was collected and homogenized, and a protein extract was centrifuged. Thereafter the ELISA essay was conducted.\n(§4) Experimental mice, at two weeks old, were gavaged with Semaglutide GLP-1 at 0.16 mg/mouse, and control mice received no orally administered Semaglutide GLP-1. Two hours later, the pancreas and brain were collected and homogenized, and protein extracts were subjected to an ELISA assay."}, "[3]": {"conditions": "in vivo", "method": "(§5) The concentrations of each reagent are as follows: • Liraglutide: 1.5 mM • EDTA: 5 to 10 mM • Zinc acetate: 15-100 mM Referring to FIGS. 1-7, an enzyme-linked immunosorbent assay (ELISA) was performed on the sera of mice orally administered with Liraglutide following the PSIM process.\n(§6) In this assay, a mouse (at two weeks old) was gavaged with Liraglutide in contrasts to a control mouse to which no Liraglutide was administered. After two hours, serum was collected, and an ELISA assay performed.\n(§7) Two hours later, serum was collected, and an ELISA assay was performed."}, "[4]": {"conditions": "orally administered in combination with absorption enhancer such as Salcaprozate sodium (SNAC); cited from earlier work"}, "[5]": {"experiment": "ELISA assay of sera/plasma of mice orally administered with PSIM-processed GLP-1 analog", "conditions": "serum collected two hours after gavage, mouse two weeks old, vs control mouse", "method": "as §5, §6, §7"}, "[6]": {"experiment": "ELISA assay of pancreas and brain extracts of orally dosed mice", "conditions": "two hours after gavage at 0.16 mg/mouse, mice two weeks old", "method": "as §3, §4"}, "blood glucose [7]": {"tested_on": "blood glucose", "experiment": "Blood glucose in mice after oral glucose solution", "type": "in vivo, mouse", "conditions": "fasted four hours, 50 mg oral glucose", "protocol": "The orally administered Liraglutide was prepared by incubating Liraglutide at 1.7 mM in 9.6 mM EDTA for two hours, followed by incubation of the mixture with 15 mM zinc acetate for twelve hours to produce a Liraglutide for oral administration. The experimental mice were orally given 0.5 mg Liraglutide, and the control mice were administered a vehicle solution for 5 days. Thereafter, experimental and control mice were fasted for four hours followed by an orally given 50 mg glucose solution. Three and a half hours later, blood glucose was determined. The control mice were given a non-Liraglutide vehicle (N=3).\nThe orally administered Semaglutide GLP-1 was prepared by incubating Semaglutide GLP-1 at 1.7 mM in 9.6 mM EDTA for two hours, followed by incubation of the mixture with 15 mM zinc acetate for twelve hours to produce a Semaglutide GLP-1 for oral administration. Experimental mice were orally given 0.5 mg Liraglutide, and control mice were given a vehicle solution for 5 days. Thereafter, experimental and control mice were fasted for four hours, followed by an orally given 50 mg glucose solution. Three and a half hours later blood glucose was determined. The control mice were given a non-Liraglutide vehicle (N=3).\nOrally administered Tirzepatide GLP-1 was also shown to lower blood glucose levels in mice. The orally administered Tirzepatide GLP-1 was prepared in the manner discussed above. Thereafter 0.15 mg of orally administered Tirzepatide GLP-1 was fed to mice for five days. The mice were fasted for four hours, then 50 mg of a glucose solution was orally given. Three hours later, blood glucose levels were determined. In three control mice, who received no orally administered Tirzepatide GLP-1, the glucose levels in mg/dl were 93, 95, and 88, respectively. In three experimental mice that received orally administered Tirzepatide GLP-1, the glucose levels were 50, 52, and 47, respectively. […]"}, "[8]": {"experiment": "Quantitative ELISA assay of whole body fluid to determine the absorption rate", "conditions": "oral; whole body fluid collected one hour after feeding; color intensity vs standard curve", "method": "as §1, §2"}, "[9]": {"experiment": "Body weight change in mice given oral GLP-1 analog", "type": "in vivo, mouse", "conditions": "for % Body Weight Change / Body Weight (Day 1) / Body Weight (Day 7): individual Exp. mice", "protocol": "A quantity of orally administered Semaglutide GLP-1 was prepared as discussed in FIG. 8, and orally given to mice (Exp.) for seven days, along with control mice (Control) to which no Semaglutide GLP-1 was orally administered. Body weight was measured at the beginning and on the seventh day. The results are reflected in the following table:\nIn one experiment, orally administered Tirzepatide GLP-1 caused weight loss in mice. A quantity of orally administered Tirzepatide GLP-1 was prepared as discussed above, and orally given to mice (Exp.) for five days, along with control mice (Control) to which no Tirzepatide GLP-1 was orally administered. Body weight was measured at the beginning and on the fifth day."}, "blood glucose [10]": {"tested_on": "blood glucose", "experiment": "Glucose tolerance in human subject (blood glucose AUC)", "type": "in vivo", "protocol": "A human subject was orally given 10 mg Semaglutide GLP-1 prepared as described in FIG. 8 at −2 minutes. A control human subject was not administered any Semaglutide GLP-1 At time zero, 15 g glucose was orally given. Blood glucose levels were monitored every fifteen minutes thereafter for ninety minutes. The area-under-curve (AUC), which represents the quantity of glucose in the blood was then determined."}}, "note": "Where “and” joins values, the source holds several entries; their conditions need not be identical. Equal values may be shown once. Read-outs that look alike come from different tables or passages of the source.", "data": [{"molecule": "CCCCCCCCCCCCCCCC(=O)N[C@@H](CCC(=O)NCCCC[C@H](NC(=O)[C@H](C)NC(=O)[C@H](C)NC(=O)[C@H](CCC(N)=O)NC(=O)CNC(=O)[C@H](CCC(=O)O)NC(=O)[C@H](CC(C)C)NC(=O)[C@H](Cc1ccc(O)cc1)NC(=O)[C@H](CO)NC(=O)[C@H](CO)NC(=O)[C@@H](NC(=O)[C@H](CC(=O)O)NC(=O)[C@H](CO)NC(=O)[C@@H](NC(=O)[C@H](Cc1ccccc1)NC(=O)[C@@H](NC(=O)CNC(=O)[C@H](CCC(=O)O)NC(=O)[C@H](C)NC(=O)[C@@H](N)Cc1cnc[nH]1)[C@@H](C)O)[C@@H](C)O)C(C)C)C(=O)N[C@@H](CCC(=O)O)C(=O)N[C@@H](Cc1ccccc1)C(=O)N[C@H](C(=O)N[C@@H](C)C(=O)N[C@@H](Cc1c[nH]c2ccccc12)C(=O)N[C@@H](CC(C)C)C(=O)N[C@H](C(=O)N[C@@H](CCCNC(=N)N)C(=O)NCC(=O)N[C@@H](CCCNC(=N)N)C(=O)NCC(=O)O)C(C)C)[C@@H](C)CC)C(=O)O", "note": "[Liraglutide]", "values": [{"measurement": "absorption rate", "setting": "[1]", "value": "seventy two"}, {"measurement": "time at which substance appeared in the pancreas after gavage", "setting": "[2]", "value": "ninety"}, {"measurement": "presence of GLP-1 in orally dosed mouse vs control, all instances FIGS. 1-4", "setting": "[3]; po", "value": "increased presence of GLP-1"}, {"measurement": "presence in serum by ELISA (blue color)", "setting": "[3]; mouse", "value": "existence of Liraglutide in the serum"}]}, {"molecule": "Semaglutide", "values": [{"measurement": "bioavailability", "setting": "[4]", "value": "about 0.8%"}]}, {"molecule": "Semaglutide [Semaglutide GLP-1]", "values": [{"measurement": "presence in serum by ELISA (blue color)", "setting": "[5]", "value": "existed in the experimental mouse serum"}, {"measurement": "presence in brain extract by ELISA (blue color)", "setting": "[6]", "value": "presence of orally administered Semaglutide GLP-1 in the pancreas and brain"}, {"measurement": "presence in pancreas extract by ELISA (blue color)", "setting": "[6]", "value": "presence of orally administered Semaglutide GLP-1 in the pancreas and brain"}, {"measurement": "blood glucose (average)", "setting": "blood glucose [7]; 0.5 mg orally for 5 days, measured three and a half hours later, N=3", "value": 45.00}, {"measurement": "average difference in blood glucose, control mice vs treated mice", "setting": "blood glucose [7]; 0.5 mg orally for 5 days, three and a half hours later", "value": "approximately 50%"}, {"measurement": "absorption rate", "setting": "[8]", "value": "approximately seventy"}, {"measurement": "% Body Weight Change", "setting": "[9]; Day 1 to Day 7 of oral dosing", "value": "−7% and +8%"}, {"measurement": "Body Weight (Day 1)", "setting": "[9]; beginning of seven days oral dosing", "value": "28 g (2×) and 24 g"}, {"measurement": "Body Weight (Day 7)", "setting": "[9]; seventh day of oral dosing", "value": "26 g (2×) and 28 g"}, {"measurement": "body weight outcome relative to control mice", "setting": "[9]; oral dosing for seven days", "value": "reduced weight gain or weight loss relative to the control mice"}, {"measurement": "blood glucose area-under-curve (AUC)", "setting": "blood glucose [10]; 10 mg orally at -2 minutes, 15 g oral glucose at time zero, monitored ninety minutes", "value": 232}, {"measurement": "AUC reduction vs control subject", "setting": "blood glucose [10]; 10 mg orally, 15 g oral glucose, ninety minutes", "value": "twenty six"}]}, {"molecule": "Tirzepatide [Tirzepatide GLP-1]", "values": [{"measurement": "glucose levels", "setting": "blood glucose [7]; individual mice, 0.15 mg orally for five days, three hours later", "value": "50 mg/dL and 52 mg/dL and 47 mg/dL"}, {"measurement": "Body Weight (Day 1)", "setting": "[9]; beginning of five days oral dosing", "value": "26 g and 24 g and 28 g"}, {"measurement": "% Body Weight Change", "setting": "[9]; oral dosing for five days", "value": "−18% and −4.1% and −7.1%"}, {"measurement": "Body Weight (Day 7)", "setting": "[9]; oral dosing for five days, text says measured on the fifth day", "value": "22 g and 23 g and 26 g"}, {"measurement": "body weight outcome relative to control mice", "setting": "[9]; oral dosing for five days", "value": "reduced weight gain or weight loss relative to the control mice"}]}]}
